Data taken from patent US20230143604A1, “QW DOSING OF GIP RECEPTOR AGONIST PEPTIDE COMPOUNDS AND USES THEREOF” (TAKEDA PHARMACEUTICAL COMPANY LIMITED, priority 2020, published 2023).
Read-outs that look alike come from different tables or passages of the source.

How the values were obtained:
C57BL/6J mice = assay: Oral glucose tolerance test (OGTT); format: in vivo; conditions: 3 nmol/kg s.c., 24 hours before glucose loading
Description: An oral glucose tolerance test (OGTT) was carried out using C57BL/6J mice with a 50% dextrose solution dosed at 5 ml/kg. Testing concentrations of 0.1 nmol/kg, 0.3 nmmol/kg, 3 nmol/kg or 10 nmol/kg were selected depending on the peptide. Each peptide or a vehicle (control group) was subcutaneously administered 24 hours (unless shown otherwise) before glucose loading and the blood glucose was measured at 0, 15, 30, and 60 minutes after glucose dosing.
% inhibition=(1−(AUC cpd−AUC naïve/AUC veh−AUC naïve))×100.

[1] = Solubility in phosphate buffer pH 7.4
How it was run: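 3 mg of peptide treated with 100 μL portions of 200 mM phosphate buffer pH 7.4, sonicating/vortexing up to 1 min, with further buffer added until fully dissolved. Solubility then quantified by HPLC.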

human GLP-1R = target: T1, human GLP-1R (Homo sapiens, UniProt P43220); assay: Human GLP1R agonist activity, intracellular cAMP accumulation; format: cell-based; conditions: HEK-293T cells overexpressing human GLP-1R, 1 hr
T1 construct: HEK-293T cells overexpressing full-length human GLP-1R; FLAG (N); host or cells: HEK-293T
T1 sequence (P43220 24-463): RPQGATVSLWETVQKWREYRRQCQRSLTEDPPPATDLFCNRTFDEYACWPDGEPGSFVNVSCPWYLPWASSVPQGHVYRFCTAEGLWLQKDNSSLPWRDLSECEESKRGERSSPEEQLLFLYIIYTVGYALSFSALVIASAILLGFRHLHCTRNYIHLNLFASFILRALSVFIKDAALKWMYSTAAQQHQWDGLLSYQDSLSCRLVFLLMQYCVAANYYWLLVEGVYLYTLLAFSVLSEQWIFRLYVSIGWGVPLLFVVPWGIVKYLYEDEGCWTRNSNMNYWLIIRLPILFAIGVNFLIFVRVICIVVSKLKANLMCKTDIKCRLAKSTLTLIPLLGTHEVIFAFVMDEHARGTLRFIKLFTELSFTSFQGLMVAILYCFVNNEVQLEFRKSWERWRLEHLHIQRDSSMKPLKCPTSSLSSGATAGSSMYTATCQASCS
How it was run: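 Frozen assay-ready cells washed and resuspended at 4×10^5 cells/mL in Krebs Ringer buffer, then incubated with compound 1 hr at room temperature in the dark. cAMP read by HTRF (anti-cAMP antibody, d2-cAMP tracer). Normalised to 1 nm GLP-1 (100%) and DMSO (0%).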

[2] = pH 7.4, aqueous buffer, pH 7.4 Phosphate Buffer - Solubility, 200 mM Phosphate buffer pH 7.4
[3] = pH 7.4, solubility in phosphate buffer at pH 7.4, 200 mM phosphate buffer pH 7.4
[4] = Human GLP1R cAMP EC50, HEK293T (nM)
[5] = read-out: Human GLP1R cAMP EC50, HEK293T

SMILES | Oral Glucose Tolerance Test Percent decrease in blood glucose AUC (%) over 60 mins (C57BL/6J mice) | solubility [1, 2] [mg/mL] | solubility [1, 3] [mg/mL] | EC50 (human GLP-1R; [4]) [nM] | solubility ([1]; pH 7.4) [mg/mL] | solubility ([1]; pH 7.4, aqueous buffer) [mg/mL] | EC50 (human GLP-1R; [5]) [nM]
CC[C@H](C)[C@H](NC(=O)[C@H](CO)NC(=O)[C@H](Cc1ccc(O)cc1)NC(=O)[C@H](CC(=O)O)NC(=O)[C@H](CO)NC(=O)[C@@H](NC(=O)[C@H](Cc1ccccc1)NC(=O)[C@@H](NC(=O)CNC(=O)[C@H](CCC(=O)O)NC(=O)C(C)(C)NC(=O)[C@H](Cc1ccc(O)cc1)NC)[C@@H](C)O)[C@@H](C)CC)C(=O)N[C@@H](C)C(=O)N[C@@H](CCCCNC(=O)CNC(=O)CNC(=O)CNC(=O)CNC(=O)CNC(=O)CCCCCCCCCCCCCCCCC(=O)O)C(=O)N[C@@H](CC(=O)O)C(=O)N[C@@H](CCCNC(=N)N)C(=O)NC(C)(C)C(=O)N[C@@H](C)C(=O)N[C@@H](CCC(N)=O)C(=O)NC(C)(C)C(=O)N[C@@H](CC(=O)O)C(=O)N[C@@H](Cc1ccccc1)C(=O)N[C@H](C(=O)N[C@@H](CC(N)=O)C(=O)N[C@@H](Cc1c[nH]c2ccccc12)C(=O)N[C@@H](CC(C)C)C(=O)N[C@@H](CC(C)C)C(=O)N[C@@H](C)C(=O)N[C@@H](CCC(N)=O)C(=O)N[C@@H](CO)C(=O)N1CCC[C@H]1C(=O)N[C@@H](CO)C(=O)N[C@@H](CO)C(=O)NCC(=O)N[C@@H](C)C(=O)N1CCC[C@H]1C(=O)N1CCC[C@H]1C(=O)N1CCC[C@H]1C(=O)N[C@@H](CO)C(N)=O)C(C)C [Compound 38] | 97% (3 nmol/kg) | ≥ 30 | ≥ 15 | 45.7 |  |  | 
CC[C@H](C)[C@H](NC(=O)[C@H](Cc1ccccc1)NC(=O)[C@@H](NC(=O)CNC(=O)[C@H](CCC(=O)O)NC(=O)C(C)(C)NC(=O)[C@H](Cc1ccc(O)cc1)NC)[C@@H](C)O)C(=O)N[C@@H](CO)C(=O)N[C@@H](CC(=O)O)C(=O)N[C@@H](Cc1ccc(O)cc1)C(=O)N[C@@H](CO)C(=O)N[C@H](C(=O)NC(C)(C)C(=O)N[C@@H](CCCCNC(=O)CNC(=O)CNC(=O)CNC(=O)CNC(=O)CNC(=O)CCCCCCCCCCCCCCCCC(=O)O)C(=O)N[C@@H](CC(=O)O)C(=O)N[C@@H](CCCNC(=N)N)C(=O)NC(C)(C)C(=O)N[C@@H](C)C(=O)N[C@@H](CCC(N)=O)C(=O)NC(C)(C)C(=O)N[C@@H](CC(=O)O)C(=O)N[C@@H](Cc1ccccc1)C(=O)N[C@H](C(=O)N[C@@H](CC(N)=O)C(=O)N[C@@H](Cc1c[nH]c2ccccc12)C(=O)N[C@@H](CC(C)C)C(=O)N[C@@H](CC(C)C)C(=O)N[C@@H](C)C(=O)N[C@@H](CCC(N)=O)C(=O)N[C@@H](CO)C(=O)N1CCC[C@H]1C(=O)N[C@@H](CO)C(=O)N[C@@H](CO)C(=O)NCC(=O)N[C@@H](C)C(=O)N1CCC[C@H]1C(=O)N1CCC[C@H]1C(=O)N1CCC[C@H]1C(=O)N[C@@H](CO)C(N)=O)C(C)C)[C@@H](C)CC [Compound 48] | 87% (3 nmol/kg) | ≥ 30 | ≥ 15 | 87.1 |  |  | 
CC[C@H](C)[C@H](NC(=O)[C@H](CO)NC(=O)[C@H](Cc1ccc(O)cc1)NC(=O)[C@H](CC(=O)O)NC(=O)[C@H](CO)NC(=O)[C@@H](NC(=O)[C@H](Cc1ccccc1)NC(=O)[C@@H](NC(=O)CNC(=O)[C@H](CCC(=O)O)NC(=O)C(C)(C)NC(=O)[C@H](Cc1ccc(O)cc1)NC)[C@@H](C)O)[C@@H](C)CC)C(=O)N[C@@H](C)C(=O)N[C@@H](CC(C)C)C(=O)N[C@@H](CC(=O)O)C(=O)N[C@@H](CCCNC(=N)N)C(=O)N[C@@H](CCCCNC(=O)CNC(=O)CNC(=O)CNC(=O)CNC(=O)CNC(=O)CCCCCCCCCCCCCCCCC(=O)O)C(=O)N[C@@H](C)C(=O)N[C@@H](CCC(N)=O)C(=O)NC(C)(C)C(=O)N[C@@H](CC(=O)O)C(=O)N[C@@H](Cc1ccccc1)C(=O)N[C@H](C(=O)N[C@@H](CC(N)=O)C(=O)N[C@@H](Cc1c[nH]c2ccccc12)C(=O)N[C@@H](CC(C)C)C(=O)N[C@@H](CC(C)C)C(=O)N[C@@H](C)C(=O)N[C@@H](CCC(N)=O)C(=O)N[C@@H](CO)C(=O)N1CCC[C@H]1C(=O)N[C@@H](CO)C(=O)N[C@@H](CO)C(=O)NCC(=O)N[C@@H](C)C(=O)N1CCC[C@H]1C(=O)N1CCC[C@H]1C(=O)N1CCC[C@H]1C(=O)N[C@@H](CO)C(=O)O)C(C)C [Compound 52] | 65% (3 nmol/kg) | ≥ 30 | ≥ 15 | 17 |  |  | 
CC[C@H](C)[C@H](NC(=O)[C@H](Cc1ccccc1)NC(=O)[C@@H](NC(=O)CNC(=O)[C@H](CCC(=O)O)NC(=O)C(C)(C)NC(=O)[C@H](Cc1ccc(O)cc1)NC)[C@@H](C)O)C(=O)N[C@@H](CO)C(=O)N[C@@H](CC(=O)O)C(=O)N[C@@H](Cc1ccc(O)cc1)C(=O)N[C@@H](CO)C(=O)N[C@H](C(=O)NC(C)(C)C(=O)N[C@@H](CCCCNC(=O)CNC(=O)CNC(=O)CNC(=O)CNC(=O)CNC(=O)CCCCCCCCCCCCCCCCC(=O)O)C(=O)N[C@@H](CC(=O)O)C(=O)N[C@@H](CCCNC(=N)N)C(=O)NC(C)(C)C(=O)N[C@@H](C)C(=O)N[C@@H](CCC(N)=O)C(=O)NC(C)(C)C(=O)N[C@@H](CC(=O)O)C(=O)N[C@@H](Cc1ccccc1)C(=O)N[C@H](C(=O)N[C@@H](CC(N)=O)C(=O)N[C@@H](Cc1c[nH]c2ccccc12)C(=O)N[C@@H](CC(C)C)C(=O)N[C@@H](CC(C)C)C(=O)N[C@@H](C)C(=O)N[C@@H](CCC(N)=O)C(=O)N[C@@H](CO)C(=O)NCC(=O)O)C(C)C)[C@@H](C)CC [Compound 53] | 59% (3 nmol/kg) |  |  |  | ≥ 15 | ≥ 30 | 47.9
CC[C@H](C)[C@H](NC(=O)[C@H](Cc1ccccc1)NC(=O)[C@@H](NC(=O)CNC(=O)[C@H](CCC(=O)O)NC(=O)C(C)(C)NC(=O)[C@H](Cc1ccc(O)cc1)NC)[C@@H](C)O)C(=O)N[C@@H](CO)C(=O)N[C@@H](CC(=O)O)C(=O)N[C@@H](Cc1ccc(O)cc1)C(=O)N[C@@H](CO)C(=O)N[C@H](C(=O)NC(C)(C)C(=O)N[C@@H](CC(C)C)C(=O)N[C@@H](CC(=O)O)C(=O)N[C@@H](CO)C(=O)N[C@@H](CCCCNC(=O)CNC(=O)CNC(=O)CNC(=O)CNC(=O)CNC(=O)CNC(=O)CCCCCCCCCCCCCCCCC(=O)O)C(=O)N[C@@H](C)C(=O)N[C@@H](CCC(N)=O)C(=O)NC(C)(C)C(=O)N[C@@H](CC(=O)O)C(=O)N[C@@H](Cc1ccccc1)C(=O)N[C@H](C(=O)N[C@@H](CC(N)=O)C(=O)N[C@@H](Cc1c[nH]c2ccccc12)C(=O)N[C@@H](CC(C)C)C(=O)N[C@@H](CC(C)C)C(=O)N[C@@H](C)C(=O)N[C@@H](CCC(N)=O)C(=O)N[C@@H](CCCNC(=N)N)C(=O)NCC(=O)O)C(C)C)[C@@H](C)CC [Compound 64] | 53% (3 nmol/kg) |  |  |  | ≥ 15 | ≥ 30 | 110
CC[C@H](C)[C@H](NC(=O)[C@H](CO)NC(=O)[C@H](Cc1ccc(O)cc1)NC(=O)[C@H](CC(=O)O)NC(=O)[C@H](CO)NC(=O)[C@@H](NC(=O)[C@H](Cc1ccccc1)NC(=O)[C@@H](NC(=O)CNC(=O)[C@H](CCC(=O)O)NC(=O)C(C)(C)NC(=O)[C@H](Cc1ccc(O)cc1)NC)[C@@H](C)O)[C@@H](C)CC)C(=O)N[C@@H](C)C(=O)N[C@@H](CCCCNC(=O)CNC(=O)CNC(=O)CNC(=O)CNC(=O)CNC(=O)CCCCCCCCCCCCCCCCC(=O)O)C(=O)N[C@@H](CC(=O)O)C(=O)N[C@@H](CCCNC(=N)N)C(=O)NC(C)(C)C(=O)N[C@@H](C)C(=O)N[C@@H](CCC(N)=O)C(=O)NC(C)(C)C(=O)N[C@@H](CC(=O)O)C(=O)N[C@@H](Cc1ccccc1)C(=O)N[C@H](C(=O)N[C@@H](CC(N)=O)C(=O)N[C@@H](Cc1c[nH]c2ccccc12)C(=O)N[C@@H](CC(C)C)C(=O)N[C@@H](CC(C)C)C(=O)N[C@@H](C)C(=O)N[C@@H](CCC(N)=O)C(=O)N[C@@H](CCCCNC(C)=O)C(=O)NCC(=O)O)C(C)C [Compound 81] | 66% (3 nmol/kg) |  |  |  | ≥ 15 | ≥ 30 | 33.9
CC[C@H](C)[C@H](NC(=O)[C@H](CO)NC(=O)[C@H](Cc1ccc(O)cc1)NC(=O)[C@H](CC(=O)O)NC(=O)[C@H](CO)NC(=O)[C@@H](NC(=O)[C@H](Cc1ccccc1)NC(=O)[C@@H](NC(=O)CNC(=O)[C@H](CCC(=O)O)NC(=O)C(C)(C)NC(=O)[C@H](Cc1ccc(O)cc1)NC)[C@@H](C)O)[C@@H](C)CC)C(=O)N[C@@H](C)C(=O)N[C@@H](CCCCNC(=O)CNC(=O)CNC(=O)CNC(=O)CNC(=O)CNC(=O)CCCCCCCCCCCCCCCCC(=O)O)C(=O)N[C@@H](CC(=O)O)C(=O)N[C@@H](CCCNC(=N)N)C(=O)NC(C)(C)C(=O)N[C@@H](C)C(=O)N[C@@H](CCC(N)=O)C(=O)NC(C)(C)C(=O)N[C@@H](CC(=O)O)C(=O)N[C@@H](Cc1ccccc1)C(=O)N[C@H](C(=O)N[C@@H](CC(N)=O)C(=O)N[C@@H](Cc1c[nH]c2ccccc12)C(=O)N[C@@H](CC(C)C)C(=O)N[C@@H](CC(C)C)C(=O)N[C@@H](C)C(=O)N[C@@H](CCC(N)=O)C(=O)N[C@@H](CCC(N)=O)C(=O)NCC(=O)O)C(C)C [Compound 82] | 72% (3 nmol/kg) |  |  |  | ≥ 15 | ≥ 30 | 17.4
